# From patent US20240074997A1 (priority 2022, published 2024)
# What was measured:
# [1] = target: T1, glucocorticoid receptor recombinant human protein, ligand binding domain (Homo sapiens, UniProt P04150); test: glucocorticoid receptor LBD coregulator-derived peptide array; type: biochemical; conditions: Example 2, 0.1 mM vs solvent 2% DMSO, FIG. 6
# T1 construct: purchased Thermo Fisher Scientific A15668
# T1 sequence (P04150 524-758 limits assumed): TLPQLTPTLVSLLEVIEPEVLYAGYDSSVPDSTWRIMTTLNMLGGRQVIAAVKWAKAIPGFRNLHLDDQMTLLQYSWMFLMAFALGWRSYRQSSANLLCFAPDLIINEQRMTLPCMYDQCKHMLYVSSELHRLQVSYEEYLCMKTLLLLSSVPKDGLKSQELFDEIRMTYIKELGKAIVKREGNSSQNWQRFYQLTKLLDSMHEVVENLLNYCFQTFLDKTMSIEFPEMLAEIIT
# Protocol: EXAMPLE 1: Interactions between the glucocorticoid receptor ligand binding domain (LBD) and coregulator-derived peptides were determined using the method as described by Zalachoras et al 2009^xl. Each peptide array consisting of 11 coregulator peptides as described in Table 1 were incubated with a reaction mixture of 1 nM purified glucocorticoid receptor recombinant human protein, ligand binding domain, (Thermo Fisher Scientific, cat #A15668), ALEXA488-conjugated anti-Glutathione S-Transferase (GST) antibody and buffer F (PV4689, A-11131, and PV4547; Invitrogen). […] Incubation was performed at 20° C. on the peptide array, using one two arrays per condition. glucocorticoid receptor binding to each peptide on the array, reflected by fluorescent signal, was quantified by image analysis using R-based software (Precision Medicine Lab). […] Glucocorticoid receptor binding to each peptide on the array, reflected by fluorescent signal, was quantified by image analysis using R-based software (Precision Medicine Lab). […]
# The use of glucocorticoid receptor LBD was as described in Experiment 1. […] Glucocorticoid receptor binding to each peptide on the array, reflected by fluorescent signal, was quantified by image analysis using R-based software (Precision Medicine Lab).
# [2] = cited from earlier work
# [3] = test system: zebrafish larvae; test: Zebrafish inflammation model (tail fin clip, neutrophil migration); type: in vivo; conditions: 4 hours, clipped 3 day old larvae, p<0.001 vs. Vehicle
# Text: The details of this model have been described previously (Xie, Y., Meijer, […]. Modeling Inflammation in Zebrafish for the Development of Anti-inflammatory Drugs. Front. Cell Dev. Biol. 8, 620984 (2021)). In short, a zebrafish model with fluorescently labeled neutrophils is used. The tip of the tail fin of 3 day old zebrafish larvae are clipped. As a result, a local inflammatory response is initiated and evokes to leukocyte migration towards the wound. The number of attracted neutrophils is recorded and serves as parameters for inflammation. […] (Significance ***: p<0.001, as determined by Student's t-Test vs. Vehicle)
# [4] = test system: RM-1 cells; conditions: cited from earlier work
# [5] = cited from earlier work; remark: listed apart in the source
# [6] = cited from earlier work; remark: listed apart in the source
# [7] = target: T2, RARβ (Homo sapiens, UniProt P10826); conditions: cited from earlier work
# T2 sequence (P10826 1-455): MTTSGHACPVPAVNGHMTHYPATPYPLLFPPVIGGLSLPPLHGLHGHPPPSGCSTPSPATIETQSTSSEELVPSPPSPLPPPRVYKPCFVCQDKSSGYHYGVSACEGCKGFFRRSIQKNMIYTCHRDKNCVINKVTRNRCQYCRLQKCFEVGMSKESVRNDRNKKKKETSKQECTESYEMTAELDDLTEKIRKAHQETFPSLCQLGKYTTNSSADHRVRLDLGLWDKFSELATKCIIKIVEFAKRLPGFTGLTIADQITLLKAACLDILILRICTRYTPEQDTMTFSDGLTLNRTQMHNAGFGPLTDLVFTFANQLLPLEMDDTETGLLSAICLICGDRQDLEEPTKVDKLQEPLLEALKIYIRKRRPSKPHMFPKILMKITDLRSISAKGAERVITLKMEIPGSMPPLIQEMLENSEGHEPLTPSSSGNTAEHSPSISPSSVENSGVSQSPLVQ
# [8] = target: T3, RARγ (Homo sapiens, UniProt P13631); conditions: cited from earlier work
# T3 sequence (P13631 1-454): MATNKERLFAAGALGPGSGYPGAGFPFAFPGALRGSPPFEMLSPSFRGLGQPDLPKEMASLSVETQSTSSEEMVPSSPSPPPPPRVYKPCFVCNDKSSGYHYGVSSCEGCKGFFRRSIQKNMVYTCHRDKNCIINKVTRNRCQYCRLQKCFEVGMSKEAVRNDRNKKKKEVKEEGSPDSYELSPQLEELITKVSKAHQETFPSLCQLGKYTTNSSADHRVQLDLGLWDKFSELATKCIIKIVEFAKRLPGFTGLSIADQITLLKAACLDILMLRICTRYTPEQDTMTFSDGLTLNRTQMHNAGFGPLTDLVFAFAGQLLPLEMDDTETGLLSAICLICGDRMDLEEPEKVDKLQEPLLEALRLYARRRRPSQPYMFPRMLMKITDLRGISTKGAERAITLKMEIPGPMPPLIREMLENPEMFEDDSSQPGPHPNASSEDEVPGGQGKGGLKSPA
# [9] = cited from earlier work; remark: listed apart in the source
# [10] = target: T4, glucocorticoid receptor (Homo sapiens, UniProt P04150); conditions: cited from earlier work
# T4 sequence (P04150 1-777): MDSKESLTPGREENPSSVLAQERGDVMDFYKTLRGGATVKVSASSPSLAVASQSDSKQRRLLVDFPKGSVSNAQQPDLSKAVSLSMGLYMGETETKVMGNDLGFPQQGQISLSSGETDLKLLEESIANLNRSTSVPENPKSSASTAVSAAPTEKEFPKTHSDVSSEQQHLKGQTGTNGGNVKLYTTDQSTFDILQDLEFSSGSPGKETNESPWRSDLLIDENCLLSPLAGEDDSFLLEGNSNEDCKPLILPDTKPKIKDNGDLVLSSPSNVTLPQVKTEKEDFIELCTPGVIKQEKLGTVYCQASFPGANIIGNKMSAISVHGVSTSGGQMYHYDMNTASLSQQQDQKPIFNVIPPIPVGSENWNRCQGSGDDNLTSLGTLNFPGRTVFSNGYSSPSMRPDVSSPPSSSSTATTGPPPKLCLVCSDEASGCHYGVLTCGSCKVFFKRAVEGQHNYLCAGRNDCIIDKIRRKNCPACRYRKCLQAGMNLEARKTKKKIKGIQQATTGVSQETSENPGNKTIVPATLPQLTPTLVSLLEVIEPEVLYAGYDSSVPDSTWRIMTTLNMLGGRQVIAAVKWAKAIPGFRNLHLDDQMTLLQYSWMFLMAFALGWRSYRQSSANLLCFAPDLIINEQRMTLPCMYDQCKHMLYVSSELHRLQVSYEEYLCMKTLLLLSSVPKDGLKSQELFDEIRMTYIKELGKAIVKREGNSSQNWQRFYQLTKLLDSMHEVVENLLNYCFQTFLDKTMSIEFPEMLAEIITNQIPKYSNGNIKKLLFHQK
structure (smiles),measurement,setting,value
"CC1=C(/C=C/C(C)=C/C=C/C(C)=C/C(=O)O)C(C)(C)CCC1 [ATRA, all-trans retinoic acid]",glucocorticoid receptor-modulating effect (binding profile),[1],does not display any glucocorticoid receptor-modulating effect
C[C@@H]1C[C@H]2[C@@H]3C[C@H](F)C4=CC(=O)C=C[C@]4(C)[C@@]3(F)[C@@H](O)C[C@]2(C)[C@@]1(OC(=O)C1C(C)(C)C1(C)C)C(=O)OCC#N [GW870086],clinical efficacy in atopic dermatitis,[2]; atopic dermatitis patients,did not achieve significant clinical efficacy
same,skin atrophy,[2]; healthy adults,does not include skin atrophy
C[C@H]1C[C@H]2[C@@H]3CCC4=CC(=O)C=C[C@]4(C)[C@@]3(Cl)[C@@H](O)C[C@]2(C)[C@@]1(O)C(=O)CO [beclomethasone],anti-inflammatory action (number of attracted neutrophils),[3]; 25 μM,significant anti-inflammatory action
"COc1ccc(-c2ccc3cc(C(=O)O)ccc3c2)cc1C12CC3CC(CC(C3)C1)C2 [Adapalene, 6-[3-(1-adamantyl)-4-methoxyphenyl]naphthalene-2-carboxylic acid]",migration ability of RM-1 cells (wound-healing assay),[4]; dose-dependent,significantly suppressed
same,invasiveness of RM-1 cells,[4]; high doses,decrease the invasiveness
same,pKa,[5],4.23
same,pKa (strongest acidic),[5],3.99
same,pKa (strongest basic),[5],−4.8
same,solubility in dimethyl sulfoxide,[6]; 25° C.,> 10000 µg/mL
same,solubility in dimethylformamide,[6]; 25° C.,5000 µg/mL
same,solubility in ethanol,[6]; 25° C.,< 1000 µg/mL
same,solubility in tetrahydrofuran,[6]; 25° C.,5000 µg/mL
same,solubility in water,[6],poor solubility
same,affinity for RARβ,[7],high affinity
same,affinity for RARγ,[8],high affinity
same,degradation in acidic condition,"[9]; 0.3 M HCl solution, 10 min of boiling",28%
same,stability in alkaline condition,"[9]; 2 M NaOH solution, boiled for 2 h",stable
same,degradation in oxidative conditions,[9]; 80° C. for 10 min with 30% hydrogen peroxide solution,30%
same,degradation on exposure to UV light,"[9]; 254 and 366 nm, 12 h",25%
same,anti-inflammatory action (number of attracted neutrophils),[3]; 1 μM,significant anti-inflammatory action
C[C@H](NC(=O)[C@H]1CCCO1)[C@H](Oc1ccc(C(=O)O[C@H]2CCCN(C(=O)[C@H]3COC(=O)C3)C2)cc1)c1ccc(C2CC2)cc1 [LEO 134310],potency on transactivation,[10],lower potency
same,potency on transrepression,[10],high potency
